Assay results from PMC5025651, “Reprofiled anthelmintics abate hypervirulent stationary-phase Clostridium difficile” (Scientific Reports, 2016).
Values after ≈ are worked out from the molar mass of the structure shown. Where two headings read alike, the source gives them in different places.

What was measured:
Hemolysis assay = format: cell-based; settings: sheep, pH 7.4
Experimental: Sheep red blood cells (Innovative Research, Novi, MI, USA) were washed three times with PBS pH 7.4. A 3% cell suspension in PBS (100 μL) was added to test compounds in PBS (100 μL, to a final concentration of 32 μg/mL), and then incubated at 37 °C for 1 h. The plate was centrifuged at 500 × g for 10 min, and supernatants (100 μL) were transferred to a clean 96-well plate. Hemolysis was determined by measuring absorbance at 540 nm, with 1% Triton X-100 as the positive control and 0.5% DMSO in PBS as the negative control. Hemolysis assays were performed in triplicate.

B. subtilis ATCC 6051 = test: MIC by broth microdilution; format: cell-based; settings: Bacillus subtilis, ATCC6051; B. subtilis ATCC 6051; CAMHB, aerobic; duplicate; read-out: MIC
[1] = tested on: C. difficile isolate 20110742 (ribotype 002); test: MIC by broth microdilution; format: cell-based, Clostridium difficile; settings: Clostridioides difficile; isolate 20110742, ribotype 002; duplicate; read-out: MIC
[2] = tested on: L. reuteri Strain CF48-3A; test: MIC by broth microdilution; format: cell-based, Lactobacillus reuteri; settings: Limosilactobacillus reuteri; L. reuteri CF48-3A; CAMHB with 5% laked horse blood, ~48 h; duplicate; read-out: MIC
[3] = tested on: C. clostridioforme ATCC 25537; test: MIC by broth microdilution; format: cell-based, Clostridium clostridioforme; settings: Clostridium, ATCC25537; C. clostridioforme ATCC 25537; BHIS, anaerobic; duplicate; read-out: MIC
[4] = tested on: C. difficile isolate 20110961 (ribotype A12); test: MIC by broth microdilution; format: cell-based, Clostridium difficile; settings: Clostridioides difficile; isolate 20110961, ribotype A12; duplicate; read-out: MIC
[5] = tested on: C. difficile isolate 20121190 (ribotype 126); test: MIC by broth microdilution; format: cell-based, Clostridium difficile; settings: Clostridioides difficile; isolate 20121190, ribotype 126; duplicate; read-out: MIC
[6] = tested on: C. difficile isolate 20110740 (ribotype 018); test: MIC by broth microdilution; format: cell-based, Clostridium difficile; settings: Clostridioides difficile; isolate 20110740, ribotype 018; duplicate; read-out: MIC
P. distasonis ATCC 8503 = test: MIC by broth microdilution; format: cell-based; settings: Parabacteroides distasonis, ATCC8503; P. distasonis ATCC 8503; supplemented Brucella broth, anaerobic; duplicate; read-out: MIC
P. nigrescens ATCC 33563 = test: MIC by broth microdilution; format: cell-based; settings: Prevotella nigrescens, ATCC33563; P. nigrescens ATCC 33563; supplemented Brucella broth, anaerobic; duplicate; read-out: MIC
[7] = tested on: B. fragilis Strain CL05T00C42; test: MIC by broth microdilution; format: cell-based; settings: Bacteroides fragilis; B. fragilis CL05T00C42; supplemented Brucella broth, anaerobic; duplicate; read-out: MIC
[8] = tested on: C. difficile isolate 20110869 (ribotype 001_072); test: MIC by broth microdilution; format: cell-based, Clostridium difficile; settings: Clostridioides difficile; isolate 20110869, ribotype 001_072; duplicate; read-out: MIC
[9] = tested on: C. difficile isolate 20110973 (ribotype 106); test: MIC by broth microdilution; format: cell-based, Clostridium difficile; settings: Clostridioides difficile; isolate 20110973, ribotype 106; duplicate; read-out: MIC
C. difficile strain 4118 [10] = test: Time-kill kinetics against stationary-phase cultures; format: cell-based, Clostridium difficile; settings: stationary-phase CD4118
Experimental: At t = 0, 3, 6 and 24 h, sample aliquots were withdrawn from the treated cultures and bacterial viability was scored by plating serial dilutions on BHIS agar plates. The agar plates were incubated in the anaerobic chamber for 20–24 h at 37 °C. Kinetic experiments were performed at least twice.

C. sporogenes ATCC 15579 = test: MIC by broth microdilution; format: cell-based; settings: Clostridium sporogenes, ATCC15579, BHIS, anaerobic, duplicate
[11] = tested on: C. difficile isolate 20111163 (ribotype 024); test: MIC by broth microdilution; format: cell-based, Clostridium difficile; settings: Clostridioides difficile; isolate 20111163, ribotype 024; duplicate; read-out: MIC
S. epidermidis 1457 = test: MIC by broth microdilution; format: cell-based; settings: Staphylococcus epidermidis; S. epidermidis 1457; CAMHB, aerobic; duplicate; read-out: MIC
L. plantarum ATCC 8014 = test: MIC by broth microdilution; format: cell-based; settings: Lactiplantibacillus plantarum, ATCC8014; L. plantarum ATCC 8014; CAMHB with 5% laked horse blood, ~48 h; duplicate; read-out: MIC
[12] = tested on: B. thetaiotaomicron ATCC 29148; test: microbe, parasite or virus in culture; format: cell-based; settings: Bacteroides thetaiotaomicron, ATCC29148
S. aureus RN4220 = test: MIC by broth microdilution; format: cell-based; settings: Staphylococcus aureus, CAMHB, aerobic, duplicate
[13] = tested on: B. longum subsp. longum Strain 44B; test: MIC by broth microdilution; format: cell-based; settings: Bifidobacterium longum; B. longum subsp. longum 44B; LSM broth, anaerobic; duplicate; read-out: MIC
[14] = tested on: B. breve Strain EX336960VC19; test: MIC by broth microdilution; format: cell-based; settings: Bifidobacterium breve; B. breve EX336960VC19; LSM broth, anaerobic; duplicate; read-out: MIC
[15] = tested on: C. difficile isolate 20121412 (ribotype 047); test: MIC by broth microdilution; format: cell-based, Clostridium difficile; settings: Clostridioides difficile; isolate 20121412, ribotype 047; duplicate; read-out: MIC
[16] = tested on: C. difficile strain 4118 (CD4118, ATCC BAA-1870, ribotype 027); test: MIC by broth microdilution; format: cell-based, Clostridium difficile; settings: Clostridioides difficile, ATCCBAA1870; BHIS broth, anaerobic, 20–24 h, n = 2; read-out: MIC C. difficile 4118
[17] = tested on: C. difficile isolate 20110566 (ribotype 020); test: MIC by broth microdilution; format: cell-based, Clostridium difficile; settings: Clostridioides difficile; isolate 20110566, ribotype 020; duplicate; read-out: MIC
P. aeruginosa PAO1 = test: MIC by broth microdilution; format: cell-based; settings: Pseudomonas aeruginosa; P. aeruginosa PAO1; CAMHB, aerobic; duplicate; read-out: MIC
C. difficile strain 4118 [18] = test: Minimum bactericidal concentration (MBC), logarithmic- and stationary-phase cells; format: cell-based, Clostridium difficile; settings: Clostridioides difficile, 4118, 20–24 h, n = 2
Experimental: The procedure for MBC determination was adapted from that of Alam et al.[44]. Briefly, a single overnight colony of C. difficile strain 4118 (streaked onto blood agar plate) was suspended in BHIS and grown to OD600 ~ 0.4–0.5 (logarithmic phase) or for 24 h (stationary phase). In 96-well microtiter plates, cultures were added to two-fold serial dilutions of test compounds in BHIS and incubated for 20–24 h at 37 °C in an anaerobic chamber. […] MBC measurements were performed in duplicate.

[19] = tested on: C. difficile isolate 20110960 (ribotype 017); test: MIC by broth microdilution; format: cell-based, Clostridium difficile; settings: Clostridioides difficile; isolate 20110960, ribotype 017; duplicate; read-out: MIC
[20] = tested on: C. difficile isolate 20120016 (ribotype 019); test: MIC by broth microdilution; format: cell-based, Clostridium difficile; settings: Clostridioides difficile; isolate 20120016, ribotype 019; duplicate; read-out: MIC
[21] = tested on: C. difficile isolate 20100422 (ribotype 054); test: MIC by broth microdilution; format: cell-based, Clostridium difficile; settings: Clostridioides difficile; isolate 20100422, ribotype 054; duplicate; read-out: MIC
16 C. difficile isolates = test: MIC by broth microdilution, summary over 16 C. difficile isolates; format: cell-based, Clostridium difficile; settings: n = 2

Cc1cc(C(C#N)c2ccc(Cl)cc2)c(Cl)cc1NC(=O)c1cc(I)cc(I)c1O (centres unmarked) [Closantel]
hemolysis at 1 h, 32 µg/mL (Hemolysis assay): < 1% | MIC (B. subtilis ATCC 6051): ≤ 0.03 µg/mL | MIC [1]: 0.13 to 0.25 µg/mL (≈ 0.196 to 0.377 µM) | MIC [2]: 32 µg/mL (≈ 48.3 µM) | MIC [3]: 4 µg/mL (≈ 6.03 µM) | MIC [4]: 0.25 µg/mL (≈ 0.377 µM) | MIC [5]: 0.25 µg/mL (≈ 0.377 µM) | MIC [6]: 0.25 µg/mL (≈ 0.377 µM) | MIC (P. distasonis ATCC 8503): 16 µg/mL (≈ 24.1 µM) | MIC (P. nigrescens ATCC 33563): 8 µg/mL (≈ 12.1 µM) | MIC [7]: > 32 µg/mL | MIC [8]: 1 µg/mL (≈ 1.51 µM) | MIC [9]: 0.25 µg/mL (≈ 0.377 µM) | log decrease in the number of CFUs (C. difficile strain 4118 [10]; 4 × MIC, 24 h): 2.2 log | time to eradicate >99.9% of viable cells (C. difficile strain 4118 [10]; 16× MIC (rafoxanide 2 μg/mL, closantel 4 μg/mL, compound 8 1 μg/mL)): 24 h | MIC (C. sporogenes ATCC 15579): 1 µg/mL (≈ 1.51 µM) | MIC [11]: 0.13 to 0.25 µg/mL (≈ 0.196 to 0.377 µM) | MIC (S. epidermidis 1457): ≤ 0.03 µg/mL | MIC (L. plantarum ATCC 8014): > 32 µg/mL | MIC [12]: > 32 µg/mL | MIC (S. aureus RN4220): 0.25 µg/mL (≈ 0.377 µM) | MIC [13]: 16 µg/mL (≈ 24.1 µM) | MIC [14]: > 32 µg/mL | MIC [15]: 0.125 µg/mL (≈ 0.189 µM) | MIC [16]: 0.25 µg/mL (≈ 0.377 µM) | MIC [17]: 0.25 µg/mL (≈ 0.377 µM) | MIC (P. aeruginosa PAO1): > 32 µg/mL | MBC (C. difficile strain 4118 [18]; minimum bactericidal concentration (≥3-log reduction) for logarithmic-phase cells, read-out: MBClog): 2 µg/mL (≈ 3.02 µM) | MBC (C. difficile strain 4118 [18]; minimum bactericidal concentration (≥3-log reduction) for stationary-phase cells, read-out: MBCstat): 4 µg/mL (≈ 6.03 µM) | MIC [19]: 0.13 µg/mL (≈ 0.196 µM) | MIC [20]: 0.25 µg/mL (≈ 0.377 µM) | MIC [21]: 0.25 µg/mL (≈ 0.377 µM) | MIC50 (16 C. difficile isolates; Clostridioides difficile, MIC at which 50% of the 16 isolates are inhibited, read-out: MIC50): 0.25 µg/mL (≈ 0.377 µM) | MIC90 (16 C. difficile isolates; Clostridioides difficile, MIC at which 90% of the 16 isolates are inhibited, read-out: MIC90): 0.25 µg/mL (≈ 0.377 µM) | MIC Range (16 C. difficile isolates; range over 16 C. difficile isolates): 0.13 to 1 µg/mL
